The source of these data is patent publication US9850527B2, “Modified stem-loop oligonucleotide mediated reverse transcription and base-spacing constrained quantitative PCR” (National University of Singapore, priority 2010, dated 2017).

Test [1] addresses Taq polymerase (Thermus aquaticus, UniProt P19821). The settings on record: cited from earlier work.
Test [2] concerns miRNA expression in U251 cells. Put plainly: GDNF-regulated miRNA expression in U251 cells quantified by hemi-nested real-time RT-PCR. Type of test: cell-based, human. The protocol:
Human glioblastoma cell lines A172 and U251 were cultured in DMEM supplemented with 10% fetal bovine serum (FBS, Sigma) and antibiotics (100 U/ml penicillin and 100 μg/ml streptomycin) in a 5% CO2 humidified incubator at 37° C. U251 cells were seeded at 200,000 cells per well in E-well plate for 24 h and incubated with FBS-free DMEM medium for 12-16 h. The cells were then stimulated with 100 ng/ml of GDNF for defined periods of time in DMEM. For MEK inhibitor studies, the cells were pre-incubated with 5 μM U0126 (Promega, Madison, Wis., USA) for 45 min in DMEM prior to GDNF stimulations. Total RNA from untreated or GDNF treated glioblastoma cells was isolated using TRIzol reagent (Invitrogen) in the presence of 20 μg/ml linear acrylamide (Ambion) according to the manufacturer's instructions. The extracted RNA samples were then quantified using spectrophotometry and the integrity examined by denaturing RNA gel electrophoresis. […]
Real-time PCR was performed on the CFX96 system (Bio-Rad, Hercules, Calif., USA) using SYBR GREEN™ I. Real-time PCR for precursor miRNA and U6 snRNA was performed according to previous reports (Schmittgen et al., 2004; Jiang et al., 2005). […] The threshold cycles (Ct) were calculated automatically using the CFX manager software (Bio-Rad). […]
On the technique in general: In qPCR the cycle at which signal appears reflects the starting amount.

For test [3], the system named is ERK1/2 MAPK. Description: GDNF-induced ERK1/2 MAPK signaling activation in U251 cells (Western blot, phospho ERK1/2). Type of test: cell-based, human. The settings on record: GDNF 100 ng/ml. The protocol:
FIG. 18. GDNF-induced signaling activation in U251 human glioblastoma cells. Control and GDNF stimulated U251 cells were lysed with 2% SDS. Total protein lysates were quantified using microBCA protein assay (Pierce, Rockford, Ill., USA). Total protein (10 μg) were separated by SDS-PAGE and probed with antibodies against phospho ERK1/2 (Cell […] Technologies, Danvers, Mass., USA). The blots were striped in Western Blot Stripping Buffer (Pierce) and re-probed with total ERK1/2 (Cell Signaling Technologies) to verify equal loading. Chemiluminescence was imaged and analyzed by ChemiDoc system (Bio-Rad). A) Time-course of ERK1/2 MAPK activation by GDNF (100 ng/ml) in U251 cells. B) GDNF-induced ERK1/2 MAPK activation was inhibited by pre-treatment of MEK inhibitor U0126 (5 μM).
Human glioblastoma cell lines A172 and U251 were cultured in DMEM supplemented with 10% fetal bovine serum (FBS, Sigma) and antibiotics (100 U/ml penicillin and 100 μg/ml streptomycin) in a 5% CO2 humidified incubator at 37° C. U251 cells were seeded at 200,000 cells per well in E-well plate for 24 h and incubated with FBS-free DMEM medium for 12-16 h. The cells were then stimulated with 100 ng/ml of GDNF for defined periods of time in DMEM. […] The extracted RNA samples were then quantified using spectrophotometry and the integrity examined by denaturing RNA gel electrophoresis.
On the technique in general: A western blot detects proteins with antibodies after separation by electrophoresis.

Taq polymerase, sequence (P19821 whole entry): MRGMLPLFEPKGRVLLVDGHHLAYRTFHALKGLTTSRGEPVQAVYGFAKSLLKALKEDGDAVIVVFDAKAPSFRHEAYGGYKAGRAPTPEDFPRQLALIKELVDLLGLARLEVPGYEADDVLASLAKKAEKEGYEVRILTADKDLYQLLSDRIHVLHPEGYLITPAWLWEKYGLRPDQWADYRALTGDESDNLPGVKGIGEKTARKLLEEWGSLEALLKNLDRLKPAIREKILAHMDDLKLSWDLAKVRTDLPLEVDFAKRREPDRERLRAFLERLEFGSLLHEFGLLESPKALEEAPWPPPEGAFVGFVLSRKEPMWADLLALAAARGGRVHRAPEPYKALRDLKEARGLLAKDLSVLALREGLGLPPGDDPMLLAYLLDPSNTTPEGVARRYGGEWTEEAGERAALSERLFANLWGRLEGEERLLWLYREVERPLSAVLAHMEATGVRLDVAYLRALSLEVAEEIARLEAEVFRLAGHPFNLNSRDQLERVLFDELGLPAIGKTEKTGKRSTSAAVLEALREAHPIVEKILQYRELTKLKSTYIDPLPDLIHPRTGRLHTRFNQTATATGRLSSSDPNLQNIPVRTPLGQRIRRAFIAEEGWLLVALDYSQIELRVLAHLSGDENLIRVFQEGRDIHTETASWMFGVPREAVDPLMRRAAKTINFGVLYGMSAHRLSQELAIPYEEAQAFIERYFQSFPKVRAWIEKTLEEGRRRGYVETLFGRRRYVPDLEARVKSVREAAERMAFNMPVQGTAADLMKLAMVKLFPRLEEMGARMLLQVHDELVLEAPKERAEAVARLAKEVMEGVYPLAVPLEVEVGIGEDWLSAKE

For `Nc1ccc([C@H]2C[C@H](O)[C@@H](COP(=O)(O)OP(=O)(O)OP(=O)(O)O)O2)cn1` [d*CTP, 2-amino-5-(2′-deoxy-b-D-ribofuranosyl)pyridine-5′-triphosphate], in test [1], the “inhibition in PCR catalysed by Taq polymerase” value is given as “strong inhibition”.

With `Cc1cc([C@H]2C[C@H](O)[C@@H](COP(=O)(O)OP(=O)(O)OP(=O)(O)O)O2)c[nH]c1=O` [d*TTP, 5-(2′-deoxy-b-D-ribofuranosyl)-3-methyl-2-pyridone-5′-triphosphate], in test [1], the “inhibition in PCR catalysed by Taq polymerase” value is “strong inhibition”.

For the molecule `N#CC(=C(/N)Sc1ccccc1N)/C(C#N)=C(\N)Sc1ccccc1N` [U0126], in test [2] (pretreatment with U0126, 24-plex assay), the “inhibition of GDNF-induced up-regulation of the 6 miRNAs” value is listed as “effectively inhibited”. In addition, the “inhibition of GDNF-induced ERK1/2 MAPK activation” value in test [3] (U251 cells, pre-treatment with U0126 5 μM) is “inhibited”.

B1: GDNF: GDNF used to stimulate U251 glioblastoma cells at 100 ng/ml (protein, UniProt P39905 78-211, looked up)
Glial cell line-derived …: SPDKQMAVLPRRERNRQAAAANPENSRGKGRRGQRGKNRGCVLTAIHLNVTDLGLGYETKEELIFRYCSGSCDAAETTYDKILKNLSRNRRLVSDKVGQACCRPIAFDDDLSFLDDNLVYHILRKHSAKRCGCI
As for B1, the “regulation of miRNA expression (miR-7, -21, -218, let-7f, -7g, -7i), fold change to non-stimulated control” value in test [2] (GDNF 100 ng/ml, temporal regulation) is “timedependent up-regulation”. Further, the “activation of ERK1/2 MAPK” value in test [3] (U251 human glioblastoma cells, time-course) is “induced time-dependent activation of ERK1/2 MAPK”.
